# Assay results from PMC11026381, “Late-stage meta-C–H alkylation of pharmaceuticals to modulate biological properties and expedite molecular optimisation in a single step” (Nature Communications, 2024).
# What was measured:
# [1] = Thermodynamic solubility, shake-flask approach, phosphate buffer pH 7.4; assay type: physicochemical; settings: pH 7.4, phosphate buffer 0.1 M, 20 °C, n = 1
# Description: (§1) 5. Pharmaceutically relevant properties modulation
# (§2) Product analogues 5e, 6a-6k obtained after late-stage meta-C–H alkylation of the pharmaceutically active compound Emapunil (4e) were subjected to a range of fundamental in vitro drug discovery assays. To prevent hydrolysis of ester groups present on these analogues during biological testing (in order to compare the clearance and metabolic stability between these drug derivatives), their corresponding free acids 5e’, 6a’-6k’ were synthesised (see page S54) and subjected to similar assays.
# The experimental methods used for these physicochemical & drug metabolism and pharmacokinetics (DMPK) assays are described below 11.
# This method measures the thermodynamic solubility of compounds based on a shake-flask approach12.
# The nature of the solid state was unknown in these experiments and may be subject to variability. The compounds were dissolved in DMSO (30 μL, 10 mM) in glass vials, and were dried using a Genevac vacuum evaporator (Genevac Ltd, Ipswich, UK). When the samples were dry, 300 μL of phosphate buffer (0.1 M, pH 7.4) was added to the glass vials. The vials were put on an Edmund Bühler shaker (Edmund Bühler GmbH, Hechingen, Germany) at 20 °C for 18 hours. Samples were filtered through a Whatman GF/B 96-well filter and 20 μL of filtrated samples were transferred to separate wells in a plate containing 180 μL MeCN/H2O (1:1). Standards were prepared by diluting the 10 mM compound solutions with MeCN/H2O (1:1) to 200 μM. Three further dilution steps of 10 times were applied to both the samples and standards and they were all analy sed by LC-MS/MS (Waters Xevo-TQS). Solubility was determined using the integrated peak areas of the samples in the linear MS response range. […]
# [2] = Octanol/water partitioning (LogD), shake-flask method; assay type: physicochemical; settings: n = 1; for LogD (octanol): 1-octanol / phosphate buffer pH 7.4, 20 °C; for logD: 1-octanol/phosphate buffer, pH 7.4, 1-octanol / phosphate buffer pH 7.4, 20 °C
# Description: as §1, §2
# (§3) The experimental methods used for these physicochemical & drug metabolism and pharmacokinetics (DMPK) assays are described below 11. […]
# Octanol/water partitioning (LogD)
# Partitioning of compounds between 1 -octanol and phosphate buffer (0.1 M, pH 7.4) at 20 °C were determined using a modified version of the shake -flask method described by Leo et al13. Compounds were dissolved in a 96 -well plate, in 400 μL octanol, and 400 μL of buffer was added to each well. The plate was vigorously stirred for 5 min and then put on an Edmund Bühler shaker (Edmund Bühler GmbH, Hechingen, Germany) at 20 °C for 18 hours. Aliquots of 5 μL octanol were transferred and diluted with 495 μL MeCN/H2O (1:1) and, to avoid contamination of the buffer, the rest of the octanol was removed before 150 μL of buffer samples were transferred. Octanol and buffer samples were diluted with MeCN/H2O (1:1) in four steps of 10 times to yield octanol samples diluted 10 2 to 106 times and buffer samples diluted 1 to 104 times. LC-MS/MS (Waters Xevo-TQS) was used for analysis, and distribution coefficient at pH 7.4 (LogD7.4) was calculated from the integrated peak areas of the samples in the linear MS response range. LogD7.4 results were reported as median values. […]
# [3] = Fraction unbound in human plasma (Prot. Bind.), equilibrium dialysis; assay type: in vitro ADME; settings: 5 μM, dialysis at 37 °C for 18 hours
# Description: as §1, §2, §3
# Fraction unbound in human plasma (Prot. Bind.)
# Equilibrium dialysis of compounds was used to assess the fraction unbound in human plasma. Stock solutions of compounds dissolved in DMSO were pooled into cassettes with up to 10 compounds in each cassette with a concentration of 1 mM. The pooled stock solutions were diluted in plasma to a compound concentration of 5 μM. Warfarin, propranolol and metoprolol were used as reference compounds in each run. The equilibrium dialysis device (RED, Thermo Fischer Scientific Inc., Rockford, USA) was used for dialysis against phosphate buffer (pH 7.4) at 37 °C for 18 hours. Calibration curves ranging from 0.001 to 7 μM were made using aliquots of the 7 μM spiked plasma pools that were transferred to a new plate followed by serial dilutions with blank plasma. Calibration curve samples and dialysis samples were precipitated with MeCN and after centrifugation, supernatants were removed and analysed using LC-MS/MS (Waters Xevo-TQS). Fraction unbound in the incubation was calculated as the concentration in the media buffer sample divided by the concentration in the plasma sample. The fraction unbound was reported as the median value.
# [4] = Metabolic stability in human liver microsomes (CLint HLM); assay type: in vitro ADME; settings: 1 mg/mL microsomal protein, 1 mM NADPH, 37 °C; for microsomal CLint at 1 μM: both sexes, human, liver microsomes, pH 7.4, measured on the labelled compound itself, n = 1, read-out: CLint HLM (intrinsic clearance in human liver microsomes); for CLint HLM (intrinsic clearance in human liver microsomes): measured on the labelled compound itself, 1 μM, n = 1
# Description: Metabolic stability in human liver microsomes (CLint HLM)
# Human liver microsomes were defrosted on ice and diluted to 1 mg/mL of microsomal protein in phosphate buffer (0.1 M, pH 7.4). Compounds at 1 μM were incubated with the liver microsome suspensions and 1 mM NADPH at 37 °C in a 96-well plate. At 0.5, 5, 10, 15, 20 and 30 min, aliquots of 30 μL were transferred to a 96-well plate containing 120 μL MeCN. This plate was centrifuged for 20 min and supernatant was removed and diluted with H2O (1:1) before analysis by LC-MS/MS (Waters Xevo-TQS). Peak areas were determined from extracted ion chromatograms, and the in vitro intrinsic clearance (in vitro CLint, in μL/min/mg microsomal protein) of parent compound was calculated from the slope in the regression analysis of the natural logarithm of parent concentration vs. time curve.
# Human Liver Microsomes (InVitroCYPTM 150-Donor, Mixed Gender) were harvested and supplied by BioIVT (Product No. X008070, Lot No. QQY). […]
# (§4) The modulation of pharmaceutically relevant properties on meta-C–H alkylation is shown below in Supplementary Fig. 68, with a selection of physicochemical and DMPK data including solubility , LogD, human plasma protein binding (Prot. Bind.) and intrinsic clearance (CLint) in human liver microsomes (HLM) or rat hepatocytes (Rat Hep.) .
# [5] = Metabolic stability in male Han Wistar rat hepatocytes (CLint Rat Hep.); assay type: in vitro ADME; settings: measured on the labelled compound itself, 1 μM, 10^6 viable cells/mL, 37 °C, n = 1
# Description: Metabolic stability in male Han Wistar rat hepatocytes (CLint Rat Hep.) Hepatocyte metabolic stability was determined in accordance with the method described by Jacobson et al14. Cryopreserved hepatocytes at a concentration of 10 6 viable cells/mL were used. After thawing, hepatocytes were incubated for 10 min to warm to 37 °C, and compounds dissolved in MeCN were […]
# incubation system was mixed and 20 μL aliquots were transferred at each time point to wells in a separate plate filled with 80 μL MeCN to stop the reaction. The quenching plate was then vortexed followed by centrifugation, and supernatants were analysed by LC-MS/MS (Waters Xevo-TQS). Peak areas were determined from extracted ion chromatograms, and the in vitro intrinsic clearance (in vitro CLint, in μL/min/10^6 cells) of parent compound was calculated from the slope in the regression analysis of the natural logarithm of parent concentration vs. time curve. Rat Hepatocytes (Cryosuspension, Male Wistar Hannover ) were harvested and s upplied by BioIVT (Product No. M00065, Lot No. DVO).
# as §4
# [6] = aqueous buffer, thermodynamic from solid
SMILES,"solubility at 18 h [1, 6]",solubility at 18 h [1],LogD (octanol) [2],"Prot. Bind. (% free), human plasma protein binding ([3]; n = 1)",microsomal CLint at 1 μM [4],CLint HLM (intrinsic clearance in human liver microsomes) [4],logD [2],"Prot. Bind. (% free), human plasma protein binding ([3]; n = 1, listed as 6e’)","Prot. Bind. (% free), human plasma protein binding ([3]; n = 1, listed as 6i’)","Prot. Bind. (% free), human plasma protein binding ([3]; n = 1, listed as 6j’)",CLint Rat Hep. (intrinsic clearance in rat hepatocytes) [5],CLint Rat Hep. (intrinsic clearance in rat hepatocytes) ([5]; listed as 6k’),CLint Rat Hep. (intrinsic clearance in rat hepatocytes) ([5]; listed as 6f’),CLint Rat Hep. (intrinsic clearance in rat hepatocytes) ([5]; listed as 6e’),CLint Rat Hep. (intrinsic clearance in rat hepatocytes) ([5]; listed as 6a’),CLint Rat Hep. (intrinsic clearance in rat hepatocytes) ([5]; listed as 6i’),CLint Rat Hep. (intrinsic clearance in rat hepatocytes) ([5]; listed as 6c’),CLint Rat Hep. (intrinsic clearance in rat hepatocytes) ([5]; listed as 6j’)
CCN(Cc1ccccc1)C(=O)Cn1c(=O)n(C)c2cnc(-c3cccc(C4(C#N)CCC4)c3)nc21 [6d],50 µM,–,–,0.5 % free,> 300 µL/min/mg,–,3.9,–,–,–,> 300 μL/min/10^6,–,–,–,–,–,–,–
CCN(Cc1ccccc1)C(=O)Cn1c(=O)n(C)c2cnc(-c3cccc(C4(C(=O)OC)CCCC4)c3)nc21 [6e],36 µM,864 µM,1.4,0.4 % free,> 300 µL/min/mg,< 3.0 µL/min/mg,4.3,0.7 % free,–,–,> 300 μL/min/10^6,–,–,51.0 μL/min/10^6,–,–,–,–
CCOC(=O)Cc1cccc(-c2ncc3c(n2)n(CC(=O)N(CC)Cc2ccccc2)c(=O)n3C)c1 [6a],41 µM,924 µM,-0.5,12.0 % free,> 300 µL/min/mg,< 3.0 µL/min/mg,3.3,–,–,–,> 300 μL/min/10^6,–,–,–,10.5 μL/min/10^6,–,–,–
CCN(Cc1ccccc1)C(=O)Cn1c(=O)n(C)c2cnc(-c3cccc(C4(C(=O)OC)CC4)c3)nc21 [6c],51 µM,965 µM,0.3,6.6 % free,> 300 µL/min/mg,< 3.0 µL/min/mg,3.3,–,–,–,> 300 μL/min/10^6,–,–,–,–,–,36.2 μL/min/10^6,–

# Second part, led by results:
"solubility at 18 h [1, 6]",solubility at 18 h [1],LogD (octanol) [2],"Prot. Bind. (% free), human plasma protein binding ([3]; n = 1)",microsomal CLint at 1 μM [4],CLint HLM (intrinsic clearance in human liver microsomes) [4],logD [2],"Prot. Bind. (% free), human plasma protein binding ([3]; n = 1, listed as 6e’)","Prot. Bind. (% free), human plasma protein binding ([3]; n = 1, listed as 6i’)","Prot. Bind. (% free), human plasma protein binding ([3]; n = 1, listed as 6j’)",SMILES,CLint Rat Hep. (intrinsic clearance in rat hepatocytes) [5],CLint Rat Hep. (intrinsic clearance in rat hepatocytes) ([5]; listed as 6k’),CLint Rat Hep. (intrinsic clearance in rat hepatocytes) ([5]; listed as 6f’),CLint Rat Hep. (intrinsic clearance in rat hepatocytes) ([5]; listed as 6e’),CLint Rat Hep. (intrinsic clearance in rat hepatocytes) ([5]; listed as 6a’),CLint Rat Hep. (intrinsic clearance in rat hepatocytes) ([5]; listed as 6i’),CLint Rat Hep. (intrinsic clearance in rat hepatocytes) ([5]; listed as 6c’),CLint Rat Hep. (intrinsic clearance in rat hepatocytes) ([5]; listed as 6j’)
6 µM,806 µM,> 3.2,< 0.3 % free,> 300 µL/min/mg,24.1 µL/min/mg,–,–,–,–,CCN(Cc1ccccc1)C(=O)Cn1c(=O)n(C)c2cnc(-c3cccc(C4(C(=O)OCc5ccccc5)CCN(C(=O)OC(C)(C)C)CC4)c3)nc21 [6k],157 μL/min/10^6,18.0 μL/min/10^6,–,–,–,–,–,–
12 µM,852 µM,-0.4,3.3 % free,> 300 µL/min/mg,4.0 µL/min/mg,4.3,–,–,–,CCOC(=O)C(F)(F)c1cccc(-c2ncc3c(n2)n(CC(=O)N(CC)Cc2ccccc2)c(=O)n3C)c1 [6f],> 300 μL/min/10^6,–,6.8 μL/min/10^6,–,–,–,–,–
104 µM,> 1000 µM,-0.7,7.8 % free,> 300 µL/min/mg,< 3.0 µL/min/mg,2.9,–,5.9 % free,–,CCN(Cc1ccccc1)C(=O)Cn1c(=O)n(C)c2cnc(-c3cccc(C4(C(=O)OC)CCOC4)c3)nc21 (stereo not drawn) [6i],> 300 μL/min/10^6,–,–,–,–,12.9 μL/min/10^6,–,–
< 2.4 µM,910 µM,> 3.6,< 0.1 % free,> 300 µL/min/mg,7.6 µL/min/mg,–,–,–,0.8 % free,CCN(Cc1ccccc1)C(=O)Cn1c(=O)n(C)c2cnc(-c3cccc(C4(C(=O)OCc5ccccc5)CN(C(=O)OC(C)(C)C)C4)c3)nc21 [6j],> 300 μL/min/10^6,–,–,–,–,–,–,17.2 μL/min/10^6
